For one molecule, HAS2 gene expression results are on record in US20250302712A1, “COMPOSITION FOR SKIN MOISTURIZING COMPRISING PHENYLLACTIC ACID” (AMOREPACIFIC CORPORATION, priority 2024, published 2025).

This experiment deals with HAS2 (Hyaluronan synthase 2). Put plainly: HAS2 gene expression in blue light irradiated human keratinocytes (HaCaT), Taqman real-time PCR. It counts as cell-based. The following applies: blue light 410 nm 120 J/cm^2, PLA 50 μM (8.3 ppm). The method, then: The Lactobacillus plantarum APsulloc 331261 (KCCM11179P) strain used in Experimental Example above was inoculated into a medium containing MRS broth, phenylalanine at a concentration of 40 mM, and calcium carbonate at a concentration of 1%, and the culture medium was cultured for 3 days. The cells were removed by centrifugation, and 1 liter was prepared. An equal amount of ethyl acetate was added to the prepared culture medium and the reaction was performed, and the water layer and the ethyl acetate layer of the culture medium were waited for separation. The separated ethyl acetate layer was heated and distilled, and an appropriate amount of water (about 100 mL) was added to the remaining concentrate to prepare a Lactobacillus culture extract containing phenyllactic acid. […]
In addition, the hyaluronic acid production promotion effect of the culture medium of Lactobacillus strains prepared as shown in Table 1 was compared. The strains Lactobacillus plantarum APsulloc 331261 (KCCM11179P), Lactobacillus plantarum KCTC3108, Lactobacillus acidophilus KCTC3164, and Lactobacillus sakei KTCT3603 were inoculated into MRS broth, and 0.5% of the culture medium static-cultured at 35° C. for 3 days was added, and the gene expression amount of HAS2 (Hyaluronan synthase 2) was measured in the same manner as above.
(Real-time PCR tracks product formation cycle by cycle.)

Consider `O=C(O)C(O)Cc1ccccc1` (stereo not shown) [PLA, Phenyllactic acid], for which the HAS2 gene expression entry is on record as “significantly improved the decrease in HAS2 gene expression caused by blue light”.
